Measured values as given in patent publication US7241753B2, “Method of treatment of prostate cancer” (priority 2000, dated 2007).
Read-outs that look alike come from different tables or passages of the source.

Legend:
[1] = test system: breast cancer cell lines; details: in vitro; cited from earlier work
[2] = test system: myeloid cell line; details: in vitro; cited from earlier work
[3] = test system: Dunning AT-1 hormone-refractory prostate cancer tumor
Excerpt: (§1) The Dunning prostate cancer cell-line, AT-1, is a completely hormone-refractory tumor. It lacks measurable quantities of receptors for androgens as well as estrogens. As a result, the clinical behavior of this tumor is not influenced by the presence or absence of sex steroids. The doubling time of the tumor is 2.5 days, which makes it one of the most […] of all hormone-refractory Dunning tumors. It has a low (less than 5%) tendency for metastasis. The Dunning tumors are suitable for evaluating immunologic experiments with prostate cancer as they grow in immunocompetent animals.
(§2) Biopsies from excised tumors where investigated microscopically using the TUNEL-technique. Tumor biopsies were investigated with immuno-cytochemistry and antibodies for macrophages and T-lymphocytes.
In the second experiment, rats were treated as in experiment 1, but tumor size was not allowed to exceed 10 mm in diameter. This experiment was made to further evaluate the influence of tumor size on the outcome of treatment.
Animals were divided in four groups:
(§3) Group 4 animals served as tumor-bearing controls.
After animals had been sacrificed, freshly frozen tumor samples were examined for apoptosis using the TUNEL technique.

[4] = test system: Dunning AT-1 hormone-refractory prostate cancer tumor; assay: Experiment 1: Dunning AT-1 tumor transplanted subcutaneously in rats, tumors about 17 mm at start of treatment; format: in vivo, Copenhagen-Fisher male rat
Excerpt: as §1, §2
In this experiment Dunning AT-1 tumor was passed through two Copenhagen-Fisher male rats and then transplanted in a single piece, approximately 10 mm^3, which was placed subcutaneously on a third Copenhagen-Fisher male rat's dorsal side. Tumors were allowed to grow to approximately 17 mm in diameter before treatment started. Four groups of six rats each were used.
Freund's complete adjuvant is used to potentiate immune reactivity and to trigger a T-cell response.
Group 3 animals received only complete Freund's adjuvant, 0.1 mL intra-tumorally.
as §3
Tumors were measured by slide caliper at the onset of experiment. This was repeated at the end of experiment when animals were sacrificed, tumors excised, and tumor weight was noted.

[5] = versus control, end of experiment 1

## C[C@]12CC[C@H]3[C@@H](CC=C4C[C@@H](O)CC[C@@]43C)[C@@H]1CC[C@H]2O [αAED, Δ5-androstene-3-β, 17α-diol]
[1]
  apoptotic effect: apoptotic effect
[2]
  apoptotic effect: apoptotic effect
[3]; single injection of 10 mg αAED
  time for which tumor growth was arrested following treatment: at least 96 hours

## C[C@]12CC[C@H]3[C@@H](CC=C4C[C@@H](O)CC[C@@]43C)[C@@H]1CC[C@@H]2O [βAED, Δ5-androstene-3-β, 17β-diol]
[4]; end of experiment 1
  mean tumor weight: 11.6 g
  median tumor weight: 10 g
[4]; end of experiment 1 (sacrifice after 3 weeks)
  Tumor Diameter (mm): 11.6 mm
[4]; [5]
  Decrease in Tumor Size (mm): 7.6 mm
  Percent Reduction: 39.58%
[3]; single injection of 80 mg βAED, control 5.8 g
  mean tumor weight: 2.9 g
[3]; single injection, αAED animals sacrificed after 96 hours
  tumor growth observed macroscopically: clear retardation of tumor growth
